In PMC7794376 (Nature Communications, 2021):
Converted amounts (≈) assume the structure as drawn. “And” between values parts separate entries of the source, which are not always exact repeats. Equal values may be shown once. Read-outs that look alike come from different tables or passages of the source.

Key:
human CoaB (HCoaB) = human CoaB (HCoaB) (Homo sapiens, UniProt Q9HAB8); assay: EnzChek pyrophosphate assay, HCoaB; assay type: biochemical; details: replicates R1-R3; for Activity: slope of absorbance at 360 nm vs time (s)
Chain of human CoaB (HCoaB) (Q9HAB8 whole entry): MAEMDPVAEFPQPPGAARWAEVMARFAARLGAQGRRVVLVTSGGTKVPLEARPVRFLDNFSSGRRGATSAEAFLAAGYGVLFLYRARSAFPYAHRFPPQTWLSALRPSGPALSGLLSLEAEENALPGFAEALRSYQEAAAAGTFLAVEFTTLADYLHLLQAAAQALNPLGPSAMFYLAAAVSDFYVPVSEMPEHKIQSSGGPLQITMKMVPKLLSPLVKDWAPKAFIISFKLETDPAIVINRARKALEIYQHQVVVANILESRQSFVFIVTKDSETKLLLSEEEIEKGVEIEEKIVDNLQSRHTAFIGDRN

M. tuberculosis H37Rv = assay: MIC determination in different media; assay type: cell-based; details: Mycobacterium tuberculosis, read-out: Minimum inhibitory concentration (MIC)
MtbCoaBC [1] = biological target: T1, MtbCoaBC (Mycobacterium tuberculosis, UniProt P9WNZ1); assay: Competition assays, first half of CoaB reaction (EnzChek, variable CTP or PPA); assay type: biochemical; details: in words
T1 sequence (P9WNZ1 whole entry): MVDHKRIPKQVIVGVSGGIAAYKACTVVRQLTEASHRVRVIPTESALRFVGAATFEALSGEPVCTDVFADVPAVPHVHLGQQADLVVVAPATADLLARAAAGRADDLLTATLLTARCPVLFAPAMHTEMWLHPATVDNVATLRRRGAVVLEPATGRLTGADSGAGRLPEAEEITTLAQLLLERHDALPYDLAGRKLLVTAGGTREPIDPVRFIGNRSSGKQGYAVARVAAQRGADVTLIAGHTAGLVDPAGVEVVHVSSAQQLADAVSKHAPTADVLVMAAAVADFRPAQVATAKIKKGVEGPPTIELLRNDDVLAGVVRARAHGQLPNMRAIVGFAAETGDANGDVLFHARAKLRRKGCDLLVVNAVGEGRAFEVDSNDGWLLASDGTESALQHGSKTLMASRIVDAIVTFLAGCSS

MsmCoaBC = MsmCoaBC (Mycolicibacterium smegmatis, UniProt A0QWT2); assay: EnzChek pyrophosphate assay, CoaB activity of MsmCoaBC; assay type: biochemical, Mycobacterium smegmatis
Chain of MsmCoaBC (A0QWT2 whole entry): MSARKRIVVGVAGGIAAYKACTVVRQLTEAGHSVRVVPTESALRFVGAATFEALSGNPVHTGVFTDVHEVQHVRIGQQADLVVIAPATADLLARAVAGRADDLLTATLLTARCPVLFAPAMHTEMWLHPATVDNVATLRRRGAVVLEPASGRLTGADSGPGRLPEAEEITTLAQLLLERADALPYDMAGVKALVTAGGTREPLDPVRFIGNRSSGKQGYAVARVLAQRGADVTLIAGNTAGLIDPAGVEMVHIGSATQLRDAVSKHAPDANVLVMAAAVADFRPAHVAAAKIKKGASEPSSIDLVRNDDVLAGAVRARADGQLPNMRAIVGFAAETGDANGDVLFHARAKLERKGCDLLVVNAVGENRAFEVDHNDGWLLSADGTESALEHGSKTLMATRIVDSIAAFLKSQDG
Procedure: The commercially available EnzChek pyrophosphate assay kit (E-6645) (Life Technologies) was used for this assay. […] In the assays with HCoaB an enzyme concentration of 1 µM was used instead. […] Assays were performed on either a CLARIOstar or PHERAstar microplate reader (BMG Labtech) in 96-well plates (Greiner). A substrate mixture containing the substrates and the inhibitor was pre-incubated at 25 °C for 10 min. An enzyme solution was prepared and separately pre-incubated at 25 °C for 10 min. The reaction was initiated by the addition of the substrates to the solution containing the enzyme to a final volume of 75 µL. Enzymatic activity was monitored by following the absorbance at 360 nm for 30 min (100 cycles/20 s each cycle) and only the steady-state region of the assay was used for data analysis. Assays were performed in triplicates, including a negative control (lacking PPA) and a positive control (lacking inhibitor).

MtbCoaBC [2] = biological target: T1, MtbCoaBC; assay: CMP quantification assay (UPLC), second half of CoaB reaction, variable L-cysteine; assay type: biochemical; details: for CMP formation rate, uM CMP/uM protein.s-1: MtbCoaBC 32 nM, replicates R1-R3
[3] = 50 uM 1b, relative to average DMSO CT
[4] = 100 uM 1b, relative to average DMSO CT
[5] = MsmCoaBC, 1b at concentration 1 (log 0; unit not given)
[6] = MsmCoaBC, 1b at concentration 2 (log 0.30103; unit not given)
[7] = MsmCoaBC, 0.015625 uM 1b, relative to average DMSO CT, replicates R1-R3
[8] = MsmCoaBC, 0.015625 uM 1b, replicates R1-R3
[9] = MsmCoaBC, 0.03125 uM 1b, relative to average DMSO CT, replicates R1-R3
[10] = MsmCoaBC, 0.03125 uM 1b, replicates R1-R3
[11] = MsmCoaBC, 0.0625 uM 1b, relative to average DMSO CT, replicates R1-R3
[12] = MsmCoaBC, 0.0625 uM 1b, replicates R1-R3
[13] = MsmCoaBC, 0.25 uM 1b, relative to average DMSO CT, replicates R1-R3
[14] = MsmCoaBC, 0.25 uM 1b, replicates R1-R3
[15] = MsmCoaBC, 0.5 uM 1b, replicates R1-R3

O=C(c1ccc(O)cc1)c1ccc(O)c(O)c1O [compound 1b]
activity at 25 µM (human CoaB (HCoaB); 25 uM 1b, relative to average DMSO CT): 81.5% | Inhibition % (human CoaB (HCoaB); 25 uM 1b): 17.23% and 18.55% | inhibition at 25 µM (human CoaB (HCoaB); 25 uM 1b): 17.3% | Activity (human CoaB (HCoaB); 25 uM 1b): 0.0001127 and 0.0001145 and 0.0001146 | Activity % (human CoaB (HCoaB); [3]): 63.96% and 63.87% | activity at 50 µM (human CoaB (HCoaB); [3]): 75.6% | Inhibition % (human CoaB (HCoaB); 50 uM 1b): 36.13% and 24.38% | inhibition at 50 µM (human CoaB (HCoaB); 50 uM 1b): 36% | Activity (human CoaB (HCoaB); 50 uM 1b): 0.0001047 and 0.000088534 and 0.000088398 | Activity % (human CoaB (HCoaB); [4]): 56.11% and 53.46% | activity at 100 µM (human CoaB (HCoaB); [4]): 60.5% | Inhibition % (human CoaB (HCoaB); 100 uM 1b): 46.54% and 39.47% | inhibition at 100 µM (human CoaB (HCoaB); 100 uM 1b): 43.9% | Activity (human CoaB (HCoaB); 100 uM 1b): 0.000083783 and 0.000077656 and 0.000074000 | Activity (human CoaB (HCoaB); 200 uM 1b, compound interference at 200uM makes the assay unreliable): -0.000004063 and 0.000002127 and -0.000001796 | MIC (M. tuberculosis H37Rv; 7H9/ADC/Glycerol): > 250 µM | MIC (M. tuberculosis H37Rv; 7H9/Cholesterol/Tyloxapol): > 250 µM | MIC (M. tuberculosis H37Rv; GAST/Fe): 125 µM (≈ 30.8 µg/mL) | mode of inhibition (MtbCoaBC [1]; relative to CTP): uncompetitive inhibition | mode of inhibition (MtbCoaBC [1]; relative to PPA): uncompetitive inhibition | IC50 (MsmCoaBC): 260 ± 20 nM | inhibition, replicates 1-3 (MsmCoaBC; [5]): 86.05 and 84.82 and 84.29 | reaction rate (slope of absorbance at 360 nm versus time), replicates 1-3 (MsmCoaBC; [5]): 0.000051231 and 0.000045511 and 0.000049507 | remaining activity relative to control, replicates 1-3 (MsmCoaBC; [5]): 15.71 and 13.95 and 15.18 | inhibition, replicates 1-3 (MsmCoaBC; [6]): 94.07 | reaction rate (slope of absorbance at 360 nm versus time), replicates 1-3 (MsmCoaBC; [6]): -0.000000851 and -0.000003095 and 0.000019348 | remaining activity relative to control, replicates 1-3 (MsmCoaBC; [6]): -0.2608 and -0.9489 and 5.932 | Activity % (MsmCoaBC; [7]): 96.69% and 95.33% | activity at 0.015625 µM (MsmCoaBC; [7]): 98.6% | Activity (slope of absorbance at 360 nm vs time) (MsmCoaBC; [8]): 0.0003217 and 0.0003154 and 0.0003109 | Inhibition % (MsmCoaBC; [8]): 3.31% and 4.67% and 1.38% | Activity % (MsmCoaBC; [9]): 95.46% and 96.92% | activity at 0.03125 µM (MsmCoaBC; [9]): 93.2% | Activity (slope of absorbance at 360 nm vs time) (MsmCoaBC; [10]): 0.0003041 and 0.0003114 and 0.0003161 | Inhibition % (MsmCoaBC; [10]): 4.54% and 3.08% and 6.75% | Activity % (MsmCoaBC; [11]): 92.06% and 92.26% | activity at 0.0625 µM (MsmCoaBC; [11]): 85.7% | Activity (slope of absorbance at 360 nm vs time) (MsmCoaBC; [12]): 0.0002796 and 0.0003003 and 0.0003009 | Inhibition % (MsmCoaBC; [12]): 7.74% and 14.27% | inhibition at 0.0625 µM (MsmCoaBC; [12]): 7.94% | Activity % (MsmCoaBC; [13]): 48.31% and 55.06% | activity at 0.25 µM (MsmCoaBC; [13]): 46% | Activity (slope of absorbance at 360 nm vs time) (MsmCoaBC; [14]): 0.0001501 and 0.0001576 and 0.0001796 | Inhibition % (MsmCoaBC; [14]): 44.94% and 53.97% | inhibition at 0.25 µM (MsmCoaBC; [14]): 51.7% | Activity % (MsmCoaBC; MsmCoaBC, 0.5 uM 1b, relative to average DMSO CT, replicates R1-R3): 12.28% and 18.89% and 25.96% | Activity (slope of absorbance at 360 nm vs time) (MsmCoaBC; [15]): 0.000040045 and 0.000061602 and 0.000084683 | Inhibition % (MsmCoaBC; [15]): 74.04% and 87.72% | inhibition at 0.5 µM (MsmCoaBC; [15]): 81.1% | CMP formation rate, uM CMP/uM protein.s-1 (MtbCoaBC [2]; 0.0625 uM 1b, 31.25 uM L-cysteine): 0.1694 uM CMP/uM protein.s-1 and 0.1962 uM CMP/uM protein.s-1 and 0.1676 uM CMP/uM protein.s-1 | CMP formation rate, uM CMP/uM protein.s-1 (MtbCoaBC [2]; 0.0625 uM 1b, 62.5 uM L-cysteine): 0.2113 uM CMP/uM protein.s-1 and 0.2325 uM CMP/uM protein.s-1 and 0.2281 uM CMP/uM protein.s-1 | CMP formation rate, uM CMP/uM protein.s-1 (MtbCoaBC [2]; 0.0625 uM 1b, 250 uM L-cysteine): 0.2822 uM CMP/uM protein.s-1 and 0.2759 uM CMP/uM protein.s-1 and 0.2797 uM CMP/uM protein.s-1 | CMP formation rate, uM CMP/uM protein.s-1 (MtbCoaBC [2]; 0.0625 uM 1b, 500 uM L-cysteine): 0.3148 uM CMP/uM protein.s-1 and 0.3211 uM CMP/uM protein.s-1 and 0.3277 uM CMP/uM protein.s-1 | CMP formation rate, uM CMP/uM protein.s-1 (MtbCoaBC [2]; 0.250 uM 1b, 31.25 uM L-cysteine): 0.1192 uM CMP/uM protein.s-1 and 0.1053 uM CMP/uM protein.s-1 and 0.1262 uM CMP/uM protein.s-1 | CMP formation rate, uM CMP/uM protein.s-1 (MtbCoaBC [2]; 0.250 uM 1b, 62.5 uM L-cysteine): 0.1329 uM CMP/uM protein.s-1 and 0.1247 uM CMP/uM protein.s-1 and 0.1395 uM CMP/uM protein.s-1 | CMP formation rate, uM CMP/uM protein.s-1 (MtbCoaBC [2]; 0.250 uM 1b, 250 uM L-cysteine): 0.1577 uM CMP/uM protein.s-1 and 0.155 uM CMP/uM protein.s-1 and 0.1593 uM CMP/uM protein.s-1 | CMP formation rate, uM CMP/uM protein.s-1 (MtbCoaBC [2]; 0.250 uM 1b, 500 uM L-cysteine): 0.1688 uM CMP/uM protein.s-1 and 0.1557 uM CMP/uM protein.s-1 and 0.1625 uM CMP/uM protein.s-1 | mode of inhibition (MtbCoaBC [2]; relative to L-cysteine, in words): uncompetitive inhibition
